Laboratory results taken from paper PMC8962522, “Direct interaction of TrkA/CD44v3 is essential for NGF-promoted aggressiveness of breast cancer cells” (Journal of Experimental & Clinical Cancer Research : CR, 2022).
Entries after “also recorded” stand apart in the source; their conditions may differ.

System: TrkA/CD44v3 complex in COS-7 cells expressing TrkA and CD44v3
Experiment: PLA TrkA/CD44v3 complex formation in COS-7 cells
Assay type: cell-based, African green monkey (COS-7 cells)
Settings: COS-7 expressing TrkA and CD44v3; NGF 100 ng/ml, 0, 5 and 30 min; 30 fields per condition, three experiments
Procedure: Cells (10,000 cells per well) were grown on acid-washed eight-well glass slides (Thermo Scientific) in the appropriate medium supplemented with 10% FBS for 24 h. After NGF treatment, paraformaldehyde (PAF)-fixed cells were incubated with 4% bovine serum albumin (BSA) or 5% FBS (for 1 h at 20 °C), followed by overnight incubation with primary antibodies (rabbit anti-TrkA or rabbit anti-IgG + mouse anti-pan-CD44; mouse anti-CD44v3; mouse anti-CD44v6; mouse anti-IgG2a; mouse anti-IgG2b; or mouse anti-IgG1). PLA was performed following the manufacturer’s instructions in the assay kit (Duolink PLA; Sigma–Aldrich). To obtain the correct representation of the PLA signal for each condition, 30 fields per condition were observed using a fluorescence microscope (Eclipse TiU; Nikon, Japan). The PLA signals (red dots) were automatically quantified using ImageJ software (with an in-house-developed plug-in). After PLA, statistical analyses were performed using GraphPad Prism software to determine the mean dot intensity in the cells.
Fig. 1 The C-terminal region of CD44 variant 3 binds to TrkA. A Schematic representation of the CD44 gene and protein structure. Alternative splicing leads to the expression of CD44 variants, thus the insertion of exon 8 leads to the expression of a CD44 protein containing variant 3 (CD44v3) and the insertion of exon 11 leads to the expression of a CD44 containing variant 6 (CD44v6) (B) TrkA/CD44v3 complex formation in COS-7 cells expressing TrkA and CD44v3 was detected by the proximity ligation assay (PLA), which was performed 0, 5 and 30 min after the initiation of NGF (100 ng/ml) treatment. The images represent signals detected by PLA. Quantification of the red spots was performed by ImageJ software (30 randomly chosen fields per condition of three different experiments). Statistical analyses were performed using one-way ANOVA followed by Bonferroni’s posttest. Error bars represent the standard error of the mean (S.E.M.); *** p < 0.001. ns, nonsignificant. C NGF and/or TrkA binding to CD44v3 was measured by microscale thermophoresis (MST). MST experiments were performed on whole cell extracts of COS-7 cells expressing CD44v3. […]
Fig. 2 The C-terminal region of CD44v3 and the His112 residue of TrkA are involved in the CD44v3/TrkA interaction. TrkA/CD44v3 complex association was detected by the proximity ligation assay (PLA) in wild-type TrkA- or TrkA_H112A- and CD44v3-expressing COS-7 cells. […] Representative images of signals detected by PLA (A) and their quantification (B). […] TrkA/CD44v3 complex association was detected by PLA in wild-type TrkA and CD44v3 wild type or CD44v3 deleted mutant Δ3 or Δ4 expressing COS-7 (D, E). […] Quantification of PLA was performed using ImageJ software (30 fields per condition of three different experiments). […]

Substance | effect on TrkA/CD44v3 complex formation (PLA) in COS-7 cells
IDDDEDFISST [Peptide 4, mimetic peptide 4 (…) corresponding to the C-terminal region of CD44v3] | could decrease NGF-induced TrkA/CD44v3 complex formation in COS-7 cells
NGF: recombinant human β-NGF (Alomone Labs, Israel) | increased the PLA-detected TrkA/CD44v3 signal in the plasma membrane of COS-7 cells following NGF stimulation; also recorded: transient and decreased 30 min after NGF stimulation
